Assay results reported in patent publication US5932618A, “Anti-viral agents and methods relating to the use thereof” (Signal Pharmaceuticals, Inc., priority 1996, dated 1999).

How the values were obtained:
U373 MG cells = format: cell-based, human; conditions: PAA 200-400 μg/ml, MTS cytotoxicity assay, data not shown
[1] = test system: HCMV viral DNA replication; test: Viral DNA replication determined by dot blot analysis in stable clones; format: cell-based, HCMV (Towne strain); conditions: in presence of PAA (200-400 μg/ml), three different stable clones, data not shown
Protocol: The response of the integrated reporter plasmids to HCMV infection was also examined in the presence and absence of the well characterized viral DNA inhibitor phosphonoacetic acid (PAA, Sigma, St. Louis, Mo., 99.7 purity). The results are presented in FIG. 7 (P-luc), FIG. 8 (pol-luc) and FIG. 9 (pp28-luc). Cells were seeded into a 96 well plate in G418 selection media. The following day, cells were treated in the absence (lanes 1 and 4, panels B and C) or presence of PAA at 200 μg/mL (lanes 2 and 5, panels B and C) and 400 μg/mL (lanes 3 and 6, panels B and C). Cells were then superinfected with HCMV at 10 pfu/cell. Forty-eight hours post-infection, cells were harvested and isolated for either mRNA preparation, protein lysates or the luciferase assay. Luciferase activity measured as described above is shown in panels A of FIGS. 7-9. Northern analyses were performed on mRNA using probes for luciferase, MIEP-, pol- or pp28-specific mRNA and beta-actin mRNA to quantitate the amount of mRNA in each lane (panels B). Protein lysates were used for western blot analysis using antibody specific against luciferase (panels C). […] Viral DNA replication in presence of PAA was inhibited by nearly 90 percent as determined by dot blot analysis in three different stable clones (data not shown). […]

[2] = test system: HCMV pol promoter (pol-luc cells); test: Luciferase reporter assay in pol-luc cells 48 hours after HCMV infection; format: cell-based; conditions: 48 hours after infection with 3 pfu/cell HCMV, increasing amounts of compound in DMSO
Protocol: The Pol promoter sequence, from position -425 to +15, was amplified by PCR using cosmid pCM1058 (Peter Ghazal) as template. The primers are: 5'-[…]-3' (sense primer), and 5'-[…]-3' (antisense primer). These oligo primers introduced a HindIII restriction site at the 5' and 3' end of Pol promoter fragment. The HindIII digested PCR fragment was inserted into HindIII digested pGL2-basic luciferase reporter plasmid (Promega, Madison, Wis.). The promoter direction was determined and PCR fidelity of the promoter sequence was confirmed by sequencing.
(§1) B. Establishment of Stable Cell Lines
(§2) The HCMV permissive human glioblastoma cell line U373 MG was transfected with the constructs described above. […]
(§3) Cells were infected with HCMV (Towne strain, obtained from American Type Culture Collection, Rockville, Md.) at 5-10 pfu/cell. […] Plates were read immediately in a Packard TopCount™ (Packard, Hartford, Conn.). Clones showing high luciferase inducibility were further analyzed by PCR to ascertain the integrity of the reporter transcriptional unit integrated into the genomic DNA. […]
(§4) Cells are maintained in DMEM (Mediatech, Herndon, Va.) supplemented with 10% fetal bovine serum (Gemini Bioproducts, Inc., Calabasas, Calif.), 1% antimycotic/antibiotic (GIBCO, Baltimore, Md.) and 0.6 μg/mL G148 (GIBCO, Baltimore, Md.). […] Luciferase activity (luminescence) in each well is then measured using a Packard Topcount™. […]

[3] = test system: MIEP viral immediate early promoter (MIEP-luc cells); test: Luciferase reporter assay in MIEP-luc cells 48 hours after HCMV infection; format: cell-based; conditions: 48 hours after infection with 3 pfu/cell HCMV, increasing amounts of compound in DMSO
Protocol: The MIEP promoter sequence, from position -1145 to +122, was amplified by PCR using plasmid pSE as a template. The primers are: 5'-[…]-3' (sense primer), and 5'[…]-3' (antisense primer). These oligo primers introduced a KpnI restriction site at the 5' and 3' end of MIEP promoter fragment. The KpnI digested PCR fragment was inserted into KpnI digested pGL2-basic luciferase reporter plasmid (Promega, Madison, Wis.). The promoter direction was determined and PCR fidelity of the promoter sequence was confirmed by sequencing.
as §1, §2, §3, §4

[4] = test system: HCMV pp28 promoter (pp28-luc cells); test: Luciferase reporter assay in pp28-luc cells 48 hours after HCMV infection; format: cell-based; conditions: 48 hours after infection with 3 pfu/cell HCMV, increasing amounts of compound in DMSO
From the text: The pp28 promoter sequence, from position -609 to +106, was amplified by PCR using cosmid pCM1 (Peter Ghazal, Scripps Research Institute) as a template. The oligonucleotide primer sequences are:
These oligonucleotides primers introduced a KpnI restriction site at the 5'-end and a HindIII site at the 3'-end of the pp28 promoter fragment. Unique sites, KpnI and HindIII allowed directional cloning into the pGL2-basic luciferase reporter plasmid (Promega, Madison, Wis.), resulting in the pp28-luc promoter construct shown in FIG. 2. The PCR fidelity of the pp28 promoter sequence was confirmed by sequencing.
B. Establishment of Stable Cell Lines […]
as §3, §4

[5] = test system: β-actin cellular promoter (β-actin-luc cells); test: Luciferase reporter assay in β-actin-luc cells 48 hours after HCMV infection; format: cell-based; conditions: 48 hours after infection with 3 pfu/cell HCMV, increasing amounts of compound in DMSO
Protocol: This Example illustrates the use of the cell lines of Example 1 for identifying inhibitors of viral gene expression.
Cells are maintained in DMEM (Mediatech, Herndon, Va.) supplemented with 10% fetal bovine serum (Gemini Bioproducts, Inc., Calabasas, Calif.), 1% antimycotic/antibiotic (GIBCO, Baltimore, Md.) and 0.6 μg/mL G148 (GIBCO, Baltimore, Md.). Cells are seeded at 3×10^4 cells per well in flat-bottom, tissue culture treated 96-well plates (Corning, Corning, N.Y.) and incubated for about 18 hours in a 37° C. humidified environment. Appropriately diluted candidate modulators are then added directly to the media on cells to a final concentration of 10 μg/mL, and the plates incubated for 30 minutes at 37° C. HCMV (Towne strain, ATCC) is then added at 3 pfu/cell. Forty-eight hours post-infection, the cells are washed once with PBS (without Ca^++ and Mg^++) and lysed in the 96-well plate. An aliquot of the cell lysate is then transferred to a black 96-well plate (Packard, Hartford, Conn.) and luciferase assay reagent (Promega, Madison, Wis.) is added to the plate. Luciferase activity (luminescence) in each well is then measured using a Packard Topcount™. […]
This Example illustrates anti-viral activity of representative compounds of this invention as determined in accordance with Examples 1-4 above. […]

SMILES	toxicity to U373 MG cells (U373 MG cells)	inhibition of viral DNA replication [1] [%]	inhibition of luciferase reporter expressed from the HCMV pol promoter [2]	inhibition of reporter gene expressed from the MIEP viral immediate early promoter [3]	inhibition of luciferase reporter expressed from the HCMV pp28 promoter [4]	inhibition of reporter gene expressed from the β-actin cellular promoter [5]
O=C(O)CP(=O)(O)O [PAA, phosphonoacetic acid]	not toxic	~90	–	–	–	–
O=C(Nc1cccc([N+](=O)[O-])c1)c1cc(Cl)c2ccccc2c1O [compound (IV)]	–	–	specific inhibition	no inhibition	specific inhibition	no inhibition
COc1cc([N+](=O)[O-])ccc1NC(=O)c1cc(Cl)c2ccccc2c1O [compound (V)]	–	–	specific inhibition	no inhibition	specific inhibition	no inhibition
